Experimental findings from US20220233566A1, “NOVEL CARBONATE COMPOUND HAVING PYRROLOPYRIMIDINE SKELETON OR PHARMACEUTICALLY ACCEPTABLE SALT THEREOF” (TAIHO PHARMACEUTICAL CO., LTD., priority 2019, published 2022) are described below.

The nature of data set [1]: Presence of prodrug in mouse and absorbency (plasma AUC after oral administration). The settings on record: male, Balb/cA, mouse, 9.9 umol/kg, mice, 9.9 μmol/kg, administered compound itself in plasma, read-out: AUC0-6hr. It counts as in vivo. Here is the method: The dosage amounts of the compounds of Comparative Examples 1 to 5 and Examples 1 to 26 are those (mole/10 mL/kg) shown in Tables. Solutions for administration were prepared with an 0.5% aqueous solutions of HPMC so as to satisfy the dosage amounts.
Note that, the “amount of mole/10 mL/kg” means as follows: for example “10 mmol/10 mL/kg” means that 10 mmol of a test compound per body-weight (1 kg) of a mouse was dispersed or dissolved in a solution (10 mL) for administration. The same applies hereinafter.
The solutions for administration prepared above were orally administered to mice (Balb/cA, male) not fasted each by use of an oral administration sonde.
The mice were anesthetized with isoflurane 0.5, 1, 2, 4 and 6 hours after administration and blood was taken from the facial vein by use of a specific needle (animal lancet) and a heparin-coated hematocrit tube.
The blood sampled was immediately centrifuged (13000 rpm, 2 minutes, 4° C.) to prepare the plasma samples. After proteins were removed from the plasma samples, the concentrations of the test compound in the plasma samples were measured by LC/MS/MS.
The value of “area under the curve” (AUC) of drug concentration in blood versus time was calculated using analysis software such as Phoenix (registered trademark) WinNonlin (registered trademark).
In Table 3, “Comparative Example 1” and “Comparative Example 2” represent the “compound (Br form) of Comparative Example 1” and the “compound (I form) of Comparative Example 2”, respectively. In Table 4, “Comparative Example 6” represents the “compound (C1 form) of Comparative Example 6”.

Data set [2] relates to H358. Briefly: Growth suppression activity to human tumor cell line (Evaluation 2). It counts as cell-based. The settings on record: NCI-H358, 72 h, Human lung cancer, H358, 3 days. Here is the method:
(§1) Human tumor cell lines different in type were suspended in mediums, seeded in individual wells of a multi-well plate and cultured. On the day after initiation of culture, serially diluted solutions of a compound were added. Culture was carried out for further 3 days. Cells were counted by a CellTiter-Glo (manufactured by Promega KK) in accordance with the protocol recommended by Promega KK. Cell viability was calculated in accordance with the equation shown below and the concentration (IC50 (nM)) of the compound at which 50% of cell growth is inhibited was obtained.
(§2) T: Intensity of light emitted from a well containing a compound
(§3) C: Intensity of light emitted from a well containing no compound

Data set [3] has as its system H1650. The data set is described as above. It counts as cell-based. The note with it: NCI-H1650, 72 h, Human lung cancer, H1650, 3 days. The method, then: as §1, §2, §3
Data set [4] concerns SK-BR-3. The description is as above. The settings on record: Homo sapiens, SK-BR-3, 72 h, Human breast cancer, SK-BR-3, 3 days. It counts as cell-based. Here is the method:
as §1, §2, §3

The subject of data set [5] is A431. The description is as above. The format is cell-based. The note with it: Homo sapiens, A-431, 72 h, Human epidermoid carcinoma, A431, 3 days. Here is the method:
as §1, §2, §3

Data set [6] relates to H2122. The description is as above. The note with it: NCI-H2122, 72 h, Human lung cancer, H2122, 3 days. The format is cell-based. The method, then:
as §1, §2, §3

For data set [7], the system named is HCC827. The data set is described as above. The settings on record: Homo sapiens, HCC827, 72 h, Human lung cancer, HCC827, 3 days. It counts as cell-based. Here is the method: as §1, §2, §3
Data set [8] deals with RKO. The description is as above. It counts as cell-based. The settings on record: 72 h, Human colorectal cancer, 3 days. Here is the method: as §1, §2, §3
Data set [9] deals with A549. The description is as above. The format is cell-based. The note with it: A549, 72 h, Human lung cancer, A549, 3 days. Here is the method: as §1, §2, §3
Data set [10] relates to H520. As to the kind of experiment: Growth suppression activity to human tumor cell line (Evaluation 3). The settings on record: NCI-H520, 72 h; Human lung cancer, H520, 3 days. It counts as cell-based. The method, then: (§4) Human tumor cell lines different in type were suspended in mediums, seeded in individual wells of a multi-well plate and cultured. On the day after initiation of culture, serially diluted solutions of a compound were added. Culture was carried out for further 3 days. Cells were counted by a CellTiter-Glo (manufactured by Promega KK) in accordance with the protocol recommended by Promega KK. Cell viability was calculated in accordance with the equation shown below and the concentration (IC50 (nM)) of a compound at which 50% of cell growth is inhibited was obtained.
as §2, §3

The subject of data set [11] is A427. The data set is described as above. It counts as cell-based. The settings on record: A-427, 72 h; Human lung cancer, A427, 3 days. Here is the method:
as §4, §2, §3

Data set [12] concerns human hematopoietic organ tumor cell line (MV-4-11). Briefly: Evaluation 3 of antitumor effect and toxicity in mouse (MV-4-11 subcutaneous transplant). The format is in vivo. The method, then: (§5) The day of grouping mice was determined Day 0.
On the final day of evaluation, the blood cell components (lymphocytes: LYMPH (Lymphocytes)) of individual groups were analyzed.

The subject of data set [13] is human brain tumor cell line (U-87 MG). As to the kind of experiment: Evaluation 1 of antitumor effect and toxicity in mouse (U-87 MG subcutaneous transplant). It counts as in vivo, BALB/cA Jcl-nu/nu mice. Here is the method: as §5
IRs of Comparative Example 2-compound administration group and Example 1-compound administration group on the final day of evaluation (Day 6 in Comparative Example 2 and Day 13 in Example 1) are shown in FIG. 1 and BWC versus elapsed days is shown in FIG. 2.

Data set [14] has the same test system. Briefly: Evaluation 2 of antitumor effect and toxicity in mouse (U-87 MG subcutaneous transplant). The format is in vivo, BALB/cA Jcl-nu/nu mice. The note with it: Day 6, oral every day, Example 5 14.6 mg/kg/day vs Comparative Example 2 12 mg/kg/day. Here is the method:
as §5
In order to evaluate “effect versus toxicity”, a ratio based on IR and BWC (effect index) was obtained, and Example 5-compound administration group was compared to Comparative Example 2-compound administration group.
Effect indexes of Comparative Example 2-Compound (I form) and Example 5-compound administration groups on Day 6 are shown in FIG. 3.

The mark [15] stands for this setting: MV-4-11, oral every day from Day 1, Example 1 10.8 mg/kg/day.
The mark [16] stands for this setting: U-87 MG, oral every day from Day 1, Example 1 15.4 mg/kg/day.

A word on the IC50: it is the concentration that inhibits the measured activity by half. A low value points to greater potency in that assay. For `Nc1ncnc2c1c(Cl)cn2[C@@H]1O[C@H](CO)[C@@H](O)[C@@H]1F` [Comparative Example 6, (2R,3R,4S,5R)-5-(4-amino-5-chloro-7H-pyrrolo[2,3-d]pyrimidin-7-yl)-4-fluoro-2-(hydroxymethyl) tetrahydrofuran-3-ol], in data set [1], the AUC(0-t) worked out at 2.07 µM·h. In addition, the IC50 in [2] is 273 nM; in [3] it was 31 nM; in [4], 88 nM; in data set [5], 124 nM; in data set [6], 58 nM; in data set [7] it was 795 nM. The IC50 in data set [8] is 135 nM; in data set [9] it was 54 nM.

As to `Nc1ncnc2c1c(I)cn2[C@@H]1O[C@H](CO)C(O)C1(F)F` (stereo partly drawn) [Comparative Example 7, (2R,3R,4S,5R)-5-(4-amino-5-iodo-7H-pyrrolo[2,3-d]pyrimidin-7-yl)-4,4-difluoro-2-(hydroxymethyl) tetrahydrofuran-3-ol, reference compound], the IC50 was determined as 465 nM in data set [10] and 1140 nM in [11].

`Nc1ncnc2c1c(I)cn2[C@@H]1O[C@H](CO)[C@@H](OC(=O)OC2CCCC2)[C@@H]1F` [Example 1, (2R,3R,4S,5R)-5-(4-amino-5-iodo-7H-pyrrolo[2,3-d]pyrimidin-7-yl)-4-fluoro-2-(hydroxymethyl)tetrahydrofuran-3-yl cyclopentyl carbonate]: in data set [12] (setting [15]), the “antitumor effect (RTV)” value is “remarkable antitumor effect (tumor regression was confirmed)”; the “effect on body weight and hematological toxicity (BWC, lymphocytes T/C %)” value is “low”. Moreover, the “continuation of administration compared to Comparative Example 2-compound administration group” value in data set [12] (MV-4-11, oral every day, Example 1 10.8 mg/kg/day vs Comparative Example 2 12 mg/kg/day) was “longer”. For the same compound, in data set [13] (setting [16]), the “antitumor effect (tumor-growth inhibition rate, IR)” value was “high antitumor effect” and the “effect on body weight (BWC)” value is “mild”. In addition, the “continuation of administration compared to Comparative Example 2-compound administration group” value in [13] (U-87 MG, oral every day, Example 1 15.4 mg/kg/day vs Comparative Example 2 12 mg/kg/day) was “longer”. In addition, the “final day of evaluation (administration continued as long as weight loss was acceptable, until 20% or more)” value in [13] (oral every day, Comparative Example 2 12 mg/kg/day, Example 1 15.4 mg/kg/day) was 13 days.

Turning to `CC(C)OC(=O)O[C@H]1[C@H](F)[C@H](n2cc(I)c3c(N)ncnc32)O[C@@H]1CO` [Example 5, (2R,3R,4S,5R)-5-(4-Amino-5-iodo-7H-pyrrolo[2,3-d]pyrimidin-7-yl)-4-fluoro-2-(hydroxymethyl)tetrahydrofuran-3-yl isopropyl carbonate], the “effect versus toxicity (effect index, ratio based on IR and BWC)” value in [14] is on record as “high compared to that of Comparative Example 2-compound administration group”.
